Assay results: US11370762B2, “Vinylarene derivative and application” (SHENYANG RESEARCH INSTITUTE OF CHEMICAL INDUSTRY CO., LTD., priority 2017, dated 2022)
Where two headings read alike, the source gives them in different places.

Experiments:
[1] = system: colon cancer CT26; test: In vivo pharmacodynamics, anti-colon cancer CT26 activity (intraperitoneal injection, once daily); conditions: CT26 in BALB/c mice; for activity at the end of the experiment compared with other groups: once daily dosing; for Inhibition rate (%) of tumor weight / Tumor weight: 50 mg/kg daily intraperitoneal injection, two weeks
Procedure: Pharmacodynamics of Some Compounds In Vivo (Intraperitoneal Injection):
(§1) The anti-colon cancer CT26 activity of these compounds was tested in vivo. 1×10^6 CT26 cells were inoculated subcutaneously in the right axillary of BALB/c mice by cell suspension inoculation. When the growth of tumors were clearly observed, 42 moderately tumor size animals were selected and randomly divided into test group, solvent control group and positive drug group, with 6 animals in each group. […] The compound groups were intraperitoneally injected with 50 mg/kg of the compound every day, while the solvent control group was given the same dosage with the same volume of mixed solvent. The weight of the mice and the length and short diameter of the transplanted tumors were measured three times a week during the administration. The tumor volume (VT), relative volume (RVT) and tumor proliferation rate (T/C %) were calculated. After two weeks of administration, nude mice bearing tumors in each experimental group were executed by neck-lifting method. Solid tumour tissues were completely dissected. The weight of tumors in each experimental group was measured and the growth inhibition rate (%) was calculated.

[2] = system: colon cancer CT26; test: as above; conditions: 300 mg/kg daily by oral, two weeks, CT26 in BALB/c mice
[3] = target: T1, IDO1 enzyme in Hela cells (Homo sapiens, UniProt P14902); test: Inhibition of IDO1 enzyme in IFN-γ stimulated Hela cells (kynurenine read at 480 nm); assay type: cell-based; conditions: for inhibition at 0.1 µM: read-out: Inhibition rate (%) 100 nmol; for inhibition at 10 µM: read-out: Inhibition rate (%) 10 μmol; for activity compared with positive control drugs INCB024360 and IN-4 / IC50: Hela cells; for activity compared with positive control drugs INCB024360 and IN-4: IC50 comparison; for IC50: read-out: Inhibition rate IC50 (nmol/L) on IDO1 enzyme activity in Hela cells
T1 construct: endogenous in cells; host or cells: HeLa cells stimulated with human recombinant IFN-γ
T1 sequence (P14902 whole entry): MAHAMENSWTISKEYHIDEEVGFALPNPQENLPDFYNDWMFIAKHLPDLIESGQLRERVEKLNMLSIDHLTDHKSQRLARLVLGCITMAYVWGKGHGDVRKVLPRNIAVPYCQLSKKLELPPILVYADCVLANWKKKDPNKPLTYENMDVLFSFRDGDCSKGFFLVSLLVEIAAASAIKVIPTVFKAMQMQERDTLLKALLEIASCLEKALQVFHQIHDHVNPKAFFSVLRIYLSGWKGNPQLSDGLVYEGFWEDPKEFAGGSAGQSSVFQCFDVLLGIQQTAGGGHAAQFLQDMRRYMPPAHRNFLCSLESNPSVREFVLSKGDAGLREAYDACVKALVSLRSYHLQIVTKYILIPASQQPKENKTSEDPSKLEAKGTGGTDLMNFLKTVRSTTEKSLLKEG

[4] = system: colon cancer CT26; test: In vivo pharmacodynamics, anti-colon cancer CT26 activity (oral administration, twice a day); set-up: species or system BALB/c mice; conditions: two weeks
Procedure: Pharmacodynamic of Some Compounds In Vivo (Oral Administration):
as §1, with “observed, 56” for “observed, 42”, “with 8” for “with 6”, “The” for “The compound groups were intraperitoneally injected with 50 mg/kg of the compound every day, while the”, “same” for “same dosage with the same”, “mixed solvents by oral. The above groups were administered twice a day.” for “mixed solvent.”

[5] = Oral pharmacokinetic test of compound 55 in rats; assay type: in vivo; conditions: male, Sprague-Dawley, plasma, rat, 30 mg/kg
Procedure: Pharmacokinetic Test and Results of Compound 55:
12 Male Sprague-Dawley rats were grouped random. The final concentration of compound 55 was 1.5 mg/ml. The drug was dissolved in a solvent system of 10% DMSO, 10% hydrogenated castor oil and […] (compounds were dissolved by DMSO, hydrogenated castor oil and saline in turn by vortex or ultrasound), and the drug solution was given orally (30 mg/kg). The rats were fasted overnight but had free access to water, feeding resumed 4 hours after administration. Blood samples (0.3-0.4 mL) were collected into heparinized tubes by Retinal vein plexus at 0, 0.17, 0.33, 0.67, 1, 2, 4, 7, 10 and 24 hours after administration orally. Tubes were anticoagulated with heparin sodium (5% heparin sodium solution filled EP tube, poured out, dried). 100 uL plasma was obtained by centrifugation (10000 rpm, 3 min) and stored at −20° C. before analysis.

[6] = system: colon cancer CT26; test: In vivo pharmacodynamics, anti-colon cancer CT26 activity (oral administration, twice a day); set-up: species or system BALB/c mice; conditions: 50 mg/kg intraperitoneal injection (IP), two weeks
[7] = literature value, species not stated; cited from earlier work
[8] = 100 nmol compound, IFN-γ stimulated Hela cells, 48 hours
[9] = 10 μmol compound, IFN-γ stimulated Hela cells, 48 hours

## Cn1cc(C[C@@H](N)C(=O)O)c2ccccc21 [Compound 1-MT, 1-methyl-D-tryptophan]
[1]
  activity at the end of the experiment compared with other groups: better than that of INCB024360
[2]
  Inhibition rate (%) of tumor weight: 25.5%
  Tumor weight: 2509.17 ± 352.16 mg

## CCCCN(CCCC)c1ccc(/C(C)=C\C(=O)O)cc1NC(=O)Nc1ccc(F)cc1F [Compound 13]
[3]; [8]
  inhibition at 0.1 µM: 100%
[3]; [9]
  inhibition at 10 µM: 100%
[3]
  activity compared with positive control drugs INCB024360 and IN-4: can reach or exceed those of the positive control drugs INCB024360 and IN-4
  IC50: 3.69 nmol/L

## CCCCN(CCCC)c1ccc(/C(C)=C\C(=O)O)cc1NC(=O)Nc1ccc(C)cc1F [Compound 14]
[3]; [8]
  inhibition at 0.1 µM: 100%
[3]; [9]
  inhibition at 10 µM: 100%
[3]
  activity compared with positive control drugs INCB024360 and IN-4: can reach or exceed those of the positive control drugs INCB024360 and IN-4
  IC50: 0.18 nmol/L
[1]
  Inhibition rate (%) of tumor weight: 19.02%
  Tumor weight: 2727.33 ± 404.42 mg
[4]; 50 mg/kg oral
  Inhibition rate (%) of tumor weight: 37.39%
  Tumor weight: 793.38 ± 246.34 mg

## C/C(=C/C(=O)O)c1ccc(N(CC(C)C)CC(C)C)c(NC(=O)Nc2ccc(C)cc2)c1 [Compound 51]
[3]
  activity compared with positive control drugs INCB024360 and IN-4: can reach or exceed those of the positive control drugs INCB024360 and IN-4
  IC50: 3.69 nmol/L

## C/C(=C/C(=O)O)c1ccc(N(CC(C)C)CC(C)C)c(NC(=O)Nc2ccc(F)cc2F)c1 [Compound 55, (Z)-3-(3-(3-(2,4-difluorophenyl)ureido)-4-(diisobutylamino)phenyl)but-2-enoic acid]
[3]
  activity compared with positive control drugs INCB024360 and IN-4: can reach or exceed those of the positive control drugs INCB024360 and IN-4
  IC50: 0.09 nmol/L
[5]
  AUC: 43700 ng·h/mL
  Cmax: 16800 ng/mL
  half-life: 5 h
[1]
  Inhibition rate (%) of tumor weight: 37.02%
  Tumor weight: 2121.17 ± 343.15 mg
  activity at the end of the experiment compared with other groups: equivalent to that of 1-MT
[4]; 20 mg/kg oral (low dose)
  Inhibition rate (%) of tumor weight: 12.42%
  Tumor weight: 1109.75 ± 191.47 mg
[4]; 50 mg/kg oral
  Inhibition rate (%) of tumor weight: 27.06%
  Tumor weight: 924.25 ± 150.35 mg
[4]; 100 mg/kg oral (high dose)
  Inhibition rate (%) of tumor weight: 33.16%
  Tumor weight: 847.00 ± 305.01 mg
[6]
  Inhibition rate (%) of tumor weight: 34.97%
  Tumor weight: 824.00 ± 161.64 mg

## C/C(=C/C(=O)O)c1ccc(N(CC(C)C)CC(C)C)c(NC(=O)Nc2ccc(C)cc2F)c1 [Compound 56]
[3]
  activity compared with positive control drugs INCB024360 and IN-4: can reach or exceed those of the positive control drugs INCB024360 and IN-4
  IC50: 0.13 nmol/L

## CCCCN(CCCC)c1ccc(/C(C)=C/C(=O)OCC)cc1NC(=O)Nc1ccc(C)cc1 [Compound 518, ethyl (E)-3-(4-(dibutylamino)-3-(3-(p-tolyl)ureido)phenyl)but-2-enoate]
[3]; HeLa, 48 h
  inhibition at 0.1 µM: 76.8%
  inhibition at 10 µM: 100%

## CCCCN(CCCC)c1ccc(/C(C)=C/C(=O)O)cc1NC(=O)Nc1ccc(C)cc1F [Compound 530]
[3]
  IC50: 8.26 nmol/L

## CCOC(=O)/C=C(\C)c1ccc(N(CC(C)C)CC(C)C)c(NC(=O)Nc2ccc(F)cc2F)c1 [Compound 564, ethyl (E)-3-(3-(3-(2,4-difluorophenyl)ureido)-4-(diisobutylamino)phenyl) but-2-enoate]
[3]; [8]
  inhibition at 0.1 µM: 72.2%
[3]; [9]
  inhibition at 10 µM: 100%

## CCCCN(CCCC)c1ccc(/C(C)=C/C(=O)OCC)cc1NC(=O)Cc1ccccc1F [Compound 772]
[3]; [8]
  inhibition at 0.1 µM: 74.2%
[3]; [9]
  inhibition at 10 µM: 100%

## CCCCN(CCCC)c1ccc(/C(C)=C/C(=O)O)cc1NC(=O)Cc1ccccc1F [Compound 779]
[3]; [8]
  inhibition at 0.1 µM: 77.1%
[3]; [9]
  inhibition at 10 µM: 100%

## CCCCN(CCCC)c1ccc(/C(C)=C/C(=O)OCC)cc1NC(=O)Nc1ccccc1Cl [Compound 1021]
[3]; [8]
  inhibition at 0.1 µM: 42.1%
[3]; [9]
  inhibition at 10 µM: 100%

## CCCCN(CCCC)c1ccc(/C(C)=C/C(=O)OCC)cc1NC(=O)Nc1cccc(Cl)c1 [Compound 1022]
[3]; [8]
  inhibition at 0.1 µM: 21.2%
[3]; [9]
  inhibition at 10 µM: 53.7%

## CCCCN(CCCC)c1ccc(/C(C)=C/C(=O)OCC)cc1NC(=O)Nc1ccc(Cl)cc1 [Compound 1023]
[3]; [8]
  inhibition at 0.1 µM: 35.1%
[3]; [9]
  inhibition at 10 µM: 100%

## CCCCN(CCCC)c1ccc(/C(C)=C/C(=O)OCC)cc1NC(=O)Nc1ccc(Cl)c(C(F)(F)F)c1 [Compound 1024]
[3]; [8]
  inhibition at 0.1 µM: 29.5%
[3]; [9]
  inhibition at 10 µM: 58.2%

## CCCCN(CCCC)c1ccc(/C(C)=C/C(=O)OCC)cc1NC(=S)Nc1ccccc1 [Compound 1025]
[3]; [8]
  inhibition at 0.1 µM: 24.6%
[3]; [9]
  inhibition at 10 µM: 68.8%

## CCCCN(CCCC)c1ccc(/C(C)=C/C(=O)OCC)cc1NC(=O)Nc1cccc(C)c1 [Compound 1026]
[3]; [8]
  inhibition at 0.1 µM: 21%
[3]; [9]
  inhibition at 10 µM: 54.3%

## CCCCN(CCCC)c1ccc(/C(C)=C/C(=O)O)cc1NC(=O)Nc1ccccc1Cl [Compound 1027]
[3]; [8]
  inhibition at 0.1 µM: 71.1%
[3]; [9]
  inhibition at 10 µM: 100%

## CCCCN(CCCC)c1ccc(/C(C)=C/C(=O)O)cc1NC(=O)Nc1cccc(Cl)c1 [Compound 1028]
[3]; [8]
  inhibition at 0.1 µM: 41.5%
[3]; [9]
  inhibition at 10 µM: 100%

## CCCCN(CCCC)c1ccc(/C(C)=C/C(=O)O)cc1NC(=O)Nc1ccc(Cl)c(C(F)(F)F)c1 [Compound 1030]
[3]; [8]
  inhibition at 0.1 µM: 23.8%
[3]; [9]
  inhibition at 10 µM: 100%

## CCCCN(CCCC)c1ccc(/C(C)=C/C(=O)O)cc1NC(=S)Nc1ccccc1 [Compound 1031]
[3]; [8]
  inhibition at 0.1 µM: 29.6%
[3]; [9]
  inhibition at 10 µM: 72.7%

## NS(=O)(=O)NCCNc1nonc1C(=NO)Nc1ccc(F)c(Br)c1 [INCB024360, reference compound]
[1]
  Inhibition rate (%) of tumor weight: 10.23%
  Tumor weight: 3026.17 ± 409.75 mg
[4]; 50 mg/kg oral
  Inhibition rate (%) of tumor weight: 33.66%
  Tumor weight: 840.63 ± 144.34 mg
[7]
  T1/2 reported in the literature: 2.3 h
